Assay results from patent publication US20060100245A1, “Substituted biphenyl-4-carboxylic acid arylamide analogues” (Neurogen Corporation, priority 2002, published 2006).

Target: T1, human capsaicin receptor (VR1) (Homo sapiens, UniProt Q8NER1)
T1 construct: transfected with the pBK-CMV expression construct encoding the full length human capsaicin receptor; expressed in transfected cells
Assay: Capsaicin receptor binding assay ([3H]RTX competition)
Details: read-out: Ki
Text: This Example illustrates the preparation of VR1-transfected cells and membrane preparations for use in binding assays (Example 5) and functional assays (Example 6).
A cDNA encoding full length human capsaicin receptor (SEQ ID NO: 1, 2 or 3 of U.S. Pat. No. 6,482,611) was subcloned in the plasmid pBK-CMV (Stratagene, La Jolla, Calif.) for recombinant expression in mammalian cells.
Human embryonic kidney (HEK293) cells were transfected with the pBK-CMV expression construct encoding the full length human capsaicin receptor using standard methods. The transfected cells were selected for two weeks in media containing G418 ([…]) to obtain a pool of stably transfected cells. Independent clones were isolated from this pool by limiting dilution to obtain clonal stable cell lines for use in subsequent experiments.
For radioligand binding experiments, cells were seeded in T175 cell culture flasks in media without antibiotics and grown to approximately 90% confluency. The flasks were then washed with PBS and harvested in PBS containing 5 mM EDTA. The cells were pelleted by gentle centrifugation and stored at −80° C. until assayed.
Previously frozen cells were disrupted with the aid of a tissue homogenizer in ice-cold HEPES homogenization buffer (5mM KCl 5, 5.8 mM NaCl, 0.75 mM CaCl2, 2 mM MgCl2, 320 mM sucrose, and 10 mM HEPES pH 7.4). Tissue homogenates were first centrifuged for 10 minutes at 1000×g (4° C.) to remove the nuclear fraction and debris, and then the supernatant from the first centrifugation is further centrifuged for 30 minutes at 35,000×g (4° C.) to obtain a partially purified membrane fraction. Membranes were resuspended in the HEPES homogenization buffer prior to the assay. An aliquot of this membrane homogenate is used to determine protein concentration via the Bradford method (BIO-RAD Protein Assay Kit, #500-0001, BIO-RAD, Hercules, Calif.).
This Example illustrates a representative assay of capsaicin receptor binding that may be used to determine the binding affinity of compounds for the capsaicin (VR1) receptor.
Binding studies with [^3H] Resiniferatoxin (RTX) are carried out essentially as described by Szallasi and Blumberg (1992) J. Pharmacol. Exp. Ter. 262: 883-888. In this protocol, non-specific RTX binding is reduced by adding bovine alpha, acid glycoprotein (100 μg per tube) after the binding reaction has been terminated.
[^3H] RTX (37 Ci/mmol) is synthesized by and obtained from the Chemical Synthesis and Analysis Laboratory, National Cancer Institute-Frederick Cancer Research and Development Center, Frederick, Md. [^3H] RTX may also be obtained from commercial vendors (e.g., Amersham Pharmacia Biotech, Inc.; Piscataway, N.J.).
The membrane homogenate of Example 4 is centrifuged as before and resuspended to a protein concentration of 333 μg/ml in homogenization buffer. Binding assay mixtures are set up on ice and contain [^3H]JRTX (specific activity 2200 mCi/ml), 2 μl non-radioactive test compound, 0.25 mg/ml bovine serum albumin (Cohn fraction V), and 5×10^4−1×10^5 VR1-transfected cells. The final volume is adjusted to 500 μl (for competition binding assays) or 1,000 μl (for saturation binding assays) with the ice-cold HEPES homogenization buffer solution (pH 7.4) described above. Non-specific binding is defined as that occurring in the presence of 1 μM non-radioactive RTX (Alexis Corp.; San Diego, Calif.). For saturation binding, [^3H]RTX is added in the concentration range of […], using 1 to 2 dilutions. Typically 11 concentration points are collected per saturation binding curve.
Competition binding assays are performed in the presence of 60 pM [^3H]RTX and various concentrations of test compound. The binding reactions are initiated by transferring the assay mixtures into a 37° C. water bath and are terminated following a 60 minute incubation period by cooling the tubes on ice.

T1 sequence (Q8NER1 whole entry): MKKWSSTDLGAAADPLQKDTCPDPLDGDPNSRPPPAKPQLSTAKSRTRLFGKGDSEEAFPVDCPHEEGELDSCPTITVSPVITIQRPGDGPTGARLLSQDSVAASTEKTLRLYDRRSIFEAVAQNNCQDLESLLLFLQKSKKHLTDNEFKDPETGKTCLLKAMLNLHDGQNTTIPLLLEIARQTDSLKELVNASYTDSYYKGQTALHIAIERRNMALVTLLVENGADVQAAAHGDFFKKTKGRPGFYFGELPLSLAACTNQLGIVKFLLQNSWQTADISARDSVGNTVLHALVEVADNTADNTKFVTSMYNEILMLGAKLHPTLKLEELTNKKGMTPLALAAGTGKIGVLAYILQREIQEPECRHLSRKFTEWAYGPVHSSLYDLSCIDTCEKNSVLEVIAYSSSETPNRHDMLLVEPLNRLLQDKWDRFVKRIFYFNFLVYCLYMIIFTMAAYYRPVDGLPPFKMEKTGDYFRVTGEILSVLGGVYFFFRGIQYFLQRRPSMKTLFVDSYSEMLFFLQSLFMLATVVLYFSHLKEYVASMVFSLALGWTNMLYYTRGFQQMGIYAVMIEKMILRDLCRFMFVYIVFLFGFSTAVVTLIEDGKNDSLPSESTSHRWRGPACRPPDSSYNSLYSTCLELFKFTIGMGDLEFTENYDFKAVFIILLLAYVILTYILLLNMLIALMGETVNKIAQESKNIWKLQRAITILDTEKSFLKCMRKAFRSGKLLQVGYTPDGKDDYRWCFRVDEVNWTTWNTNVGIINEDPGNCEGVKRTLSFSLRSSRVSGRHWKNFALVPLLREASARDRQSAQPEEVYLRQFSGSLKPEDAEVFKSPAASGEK

Structure (SMILES) | Ki [nM]
CC(C)(C)c1ccc(NC(=O)c2ccc(-c3ccccn3)nc2)cc1 [Compound 9, [2,2′]Bipyridinyl-5-carboxylic acid (4-tert-butyl-phenyl)-amide] | < 1000
CC(C)(C)c1ccc(NC(=O)c2ccc(-c3ccncc3)nc2)cc1 [Compound 11, [2,4′]Bipyridinyl-5-carboxylic acid (4-tert-butyl-phenyl)-amide] | < 1000
CC(C)(C)c1ccc(NC(=O)c2ccc(-c3ncccc3C(F)(F)F)cc2N)cc1 [Compound 12, 2-Amino-N-(4-tert-butyl-phenyl)-4-(3-trifluoromethyl-pyridin-2-yl)-benzamide] | < 1000
Nc1cc(-c2ncccc2C(F)(F)F)ccc1C(=O)Nc1ccc(C(F)(F)F)cc1 [Compound 13, 2-Amino-N-(4-trifluoromethyl-phenyl)-4-(3-trifluoromethyl-pyridin-2-yl)-benzamide] | < 1000
Nc1cc(-c2ncccc2C(F)(F)F)ccc1C(=O)Nc1ccc(C(F)(F)F)nc1 [Compound 14, 2-Amino-N-(6-trifluoromethyl-pyridin-3-yl)-4-(3-trifluoromethyl-pyridin-2-yl)-benzamide] | < 1000
CC(C)(C)c1ccc(NC(=O)c2ccc(-c3ccccc3Cl)cc2)cc1 [Compound 15, 2′-Chloro-biphenyl-4-carboxylic acid (4-tert-butyl-phenyl)-amide] | < 1000
O=C(Nc1ccc(C(F)(F)F)cc1)c1ccc(-c2ncccc2C(F)(F)F)cc1O [Compound 16, 2-Hydroxy-N-(4-trifluoromethyl-phenyl)-4-(3-trifluoromethyl-pyridin-2-yl)-benzamide] | < 1000
CS(=O)(=O)Nc1cc(-c2ncccc2C(F)(F)F)ccc1C(=O)Nc1ccc(C(F)(F)F)cc1 [Compound 17, 2-Methanesulfonylamino-N-(4-trifluoromethyl-phenyl)-4-(3-trifluoromethyl-pyridin-2-yl)-benzamide] | < 1000
O=C(Nc1ccc(S(=O)(=O)C(F)(F)F)cc1)c1ccc(-c2ncccc2C(F)(F)F)cc1[N+](=O)[O-] [Compound 18, 2-Nitro-N-(4-trifluoromethanesulfonyl-phenyl)-4-(3-trifluoromethyl-pyridin-2-yl)-benzamide] | < 1000
O=C(Nc1ccc(C(F)(F)F)cc1)c1ccc(-c2ncccc2C(F)(F)F)cc1[N+](=O)[O-] [Compound 19, 2-Nitro-N-(4-trifluoromethyl-phenyl)-4-(3-trifluoromethyl-pyridin-2-yl)-benzamide] | < 1000
O=C(Nc1ccc(C(F)(F)F)nc1)c1ccc(-c2ncccc2C(F)(F)F)cc1[N+](=O)[O-] [Compound 20, 2-Nitro-N-(6-trifluoromethyl-pyridin-3-yl)-4-(3-trifluoromethyl-pyridin-2-yl)-benzamide] | < 1000
CC(C)(C)c1ccc(NC(=O)c2ccc(-c3ccccc3C(F)(F)F)cc2O)cc1 [Compound 21, 3-Hydroxy-2′-trifluoromethyl-biphenyl-4-carboxylic acid (4-tert-butyl-phenyl)-amide] | < 1000
CC(=O)N1CCCCC1c1ccc(C(=O)Nc2ccc(C(C)(C)C)cc2)cc1 (stereo not drawn) [Compound 22, 4-(1-Acetyl-piperidin-2-yl)-N-(4-tert-butyl-phenyl)-benzamide] | < 1000
CC(C)(C)c1ccc(NC(=O)c2ccc(-c3ncccc3N)cc2)cc1 [Compound 23, 4-(3-Amino-pyridin-2-yl)-N-(4-tert-butyl-phenyl)-benzamide] | < 1000
CC(C)(C)c1ccc(NC(=O)c2ccc(-c3ccncc3N)cc2)cc1 [Compound 24, 4-(3-Amino-pyridin-4-yl)-N-(4-tert-butyl-phenyl)-benzamide] | < 1000
CC(C)(C)c1ccc(NC(=O)c2ccc(-c3ncccc3NS(=O)(=O)c3ccccc3)cc2)cc1 [Compound 25, 4-(3-Benzenesulfonylamino-pyridin-2-yl)-N-(4-tert-butyl-phenyl)-benzamide] | < 1000
Cc1cc(NC(=O)c2ccc(-c3ncccc3Cl)cc2)ccc1C(C)C [Compound 26, 4-(3-Chloro-pyridin-2-yl)-N-(4-isopropyl-3-methyl-phenyl)-benzamide] | < 1000

Structure (SMILES) | Ki [nM]
CC(C)c1ccc(NC(=O)c2ccc(-c3ncccc3Cl)cc2)cc1 [Compound 27, 4-(3-Chloro-pyridin-2-yl)-N-(4-isopropyl-phenyl)-benzamide] | < 1000
O=C(Nc1ccc(C(F)(F)F)cn1)c1ccc(-c2ncccc2Cl)cc1 [Compound 28, 4-(3-Chloro-pyridin-2-yl)-N-(5-trifluoromethyl-pyridin-2-yl)-benzamide] | < 1000
CC(C)(O)c1ccc(NC(=O)c2ccc(-c3ncccc3Cl)cc2)cc1 [Compound 29, 4-(3-Chloro-pyridin-2-yl)-N-[4-(1-hydroxy-1-methyl-ethyl)-phenyl]-benzamide] | < 1000
CC(c1ccc(NC(=O)c2ccc(-c3ncccc3Cl)cc2)cc1)C(F)(F)F (stereo not drawn) [Compound 30, 4-(3-Chloro-pyridin-2-yl)-N-[4-(2,2,2-trifluoro-1-methyl-ethyl)-phenyl]-benzamide] | < 1000
COCC(C)(C)c1ccc(NC(=O)c2ccc(-c3ncccc3Cl)cc2)cc1 [Compound 31, 4-(3-Chloro-pyridin-2-yl)-N-[4-(2-methoxy-1,1-dimethyl-ethyl)-phenyl]-benzamide] | < 1000
CC(C)(C#N)c1ccc(NC(=O)c2ccc(-c3ncccc3Cl)cc2)cc1 [Compound 32, 4-(3-Chloro-pyridin-2-yl)-N-[4-(cyano-dimethyl-methyl)-phenyl]-benzamide] | < 1000
Cc1cc(NC(=O)c2ccc(-c3ncccc3F)cc2)ccc1C(C)C [Compound 33, 4-(3-Fluoro-pyridin-2-yl)-N-(4-isopropyl-3-methyl-phenyl)-benzamide] | < 1000
CC(C)c1ccc(NC(=O)c2ccc(-c3ncccc3F)cc2)cc1 [Compound 34, 4-(3-Fluoro-pyridin-2-yl)-N-(4-isopropyl-phenyl)-benzamide] | < 1000
O=C(Nc1ccc(C(F)(F)F)cc1)c1ccc(-c2ncccc2F)cc1 [Compound 35, 4-(3-Fluoro-pyridin-2-yl)-N-(4-trifluoromethyl-phenyl)-benzamide] | < 1000
O=C(Nc1ccc(C(F)(F)F)cc1)c1ccc(-c2ncccc2[N+](=O)[O-])cc1 [Compound 36, 4-(3-Nitro-pyridin-2-yl)-N-(4-trifluoromethyl-phenyl)-benzamide] | < 1000
CCCCS(=O)(=O)Nc1cccnc1-c1ccc(C(=O)Nc2ccc(C(C)(C)C)cc2)cc1 [Compound 37, 4-[3-(Butane-1-sulfonylamino)-pyridin-2-yl]-N-(4-eert-butyl-phenyl)-benzamide] | < 1000
CCC(C)c1ccc(NC(=O)c2cnc(-c3ccccc3Cl)cn2)cc1 (stereo not drawn) [Compound 38, 5-(2-Chloro-phenyl)-pyrazine-2-carboxylic acid (4-sec-butyl-phenyl)-amide] | < 1000
CC(C)(C)c1ccc(NC(=O)c2cnc(-c3ccccc3Cl)cn2)cc1 [Compound 39, 5-(2-Chloro-phenyl)-pyrazine-2-carboxylic acid (4-tert-butyl-phenyl)-amide] | < 1000
CC(C)(C)c1ccc(NC(=O)c2ccc(-c3ccccc3Cl)cn2)cc1 [Compound 40, 5-(2-Chloro-phenyl)-pyridine-2-carboxylic acid (4-tert-butyl-phenyl)-amide] | < 1000
Cc1ccc(C)c(-c2ccc(C(=O)Nc3ccc(C(F)(F)F)cc3)cn2)c1 [Compound 56, 6-(2,5-Dimethyl-phenyl)-N-(4-trifluoromethyl-phenyl)-nicotinamide] | < 1000
CC(=O)c1ccccc1-c1ccc(C(=O)Nc2ccc(C(C)(C)C)cc2)cn1 [Compound 60, 6-(2-Acetyl-phenyl)-N-(4-tert-butyl-phenyl)-nicotinamide] | < 1000
